From ChEMBL document CHEMBL1201862, “PubChem BioAssay data set” (2004)
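Assay format: 96-well plates, 48-hour exposure. Here, GI50 denotes the concentration required for 50% inhibition of growth.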 Calls of active or inactive are those of the source. No stated cut-off is given here; in the data, active = GI50 up to about 1.1 µM and inactive = higher.

Legend:
Test in all cases: NCI tumour cell line growth inhibition, 48 h
M14 = tested on: M14
NCI/ADR-RES = tested on: NCI/ADR-RES
A498 = tested on: A498
SF-268 = tested on: SF-268
SN12C = tested on: SN12C
HOP-92 = tested on: HOP-92
K562 = tested on: K562
PC-3 = tested on: PC-3
OVCAR-8 = tested on: OVCAR-8
NCI-H522 = tested on: NCI-H522
RPMI-8226 = tested on: RPMI-8226
NCI-H460 = tested on: NCI-H460
UO-31 = tested on: UO-31
LOX IMVI = tested on: LOX IMVI
SNB-75 = tested on: SNB-75
SR = tested on: SR
RXF 393 = tested on: RXF 393
HOP-62 = tested on: HOP-62
HL-60 = tested on: HL-60

`Cc1ccc(-n2nncc2[Si](C)(C)C)s1` was tested, and the GI50 (M14) was > 100 µM (inactive), the GI50 (NCI/ADR-RES) was > 100 µM (inactive) and the GI50 (A498) was > 100 µM (inactive). The GI50 (SF-268) was > 100 µM (inactive), the GI50 (SN12C) was > 100 µM (inactive) and the GI50 (HOP-92) was > 100 µM (inactive). For the same compound, the GI50 (K562) was > 100 µM (inactive), the GI50 (PC-3) was > 100 µM (inactive) and the GI50 (OVCAR-8) was > 100 µM (inactive). For the same compound, the GI50 (NCI-H522) was > 100 µM (inactive), the GI50 (RPMI-8226) was > 100 µM (inactive) and the GI50 (NCI-H460) was > 100 µM (inactive). For the same compound, the GI50 (UO-31) was > 100 µM (inactive) and the GI50 (LOX IMVI) was > 100 µM (inactive).
`O=C(CC(C(=O)c1ccco1)c1ccco1)c1ccco1` (centres undefined) was tested, and the GI50 (M14) was > 100 µM (inactive), the GI50 (NCI/ADR-RES) was > 100 µM (inactive) and the GI50 (SNB-75) was > 100 µM (inactive). For the same compound, the GI50 (SR) was > 100 µM (inactive), the GI50 (RXF 393) was > 100 µM (inactive) and the GI50 (A498) was > 100 µM (inactive). The GI50 (HOP-62) was > 100 µM (inactive), the GI50 (SF-268) was > 100 µM (inactive) and the GI50 (SN12C) was > 100 µM (inactive). For the same compound, the GI50 (HOP-92) was > 100 µM (inactive), the GI50 (HL-60) was > 100 µM (inactive) and the GI50 (K562) was > 100 µM (inactive). The GI50 (OVCAR-8) was > 100 µM (inactive), the GI50 (NCI-H522) was > 100 µM (inactive) and the GI50 (RPMI-8226) was > 100 µM (inactive). For the same compound, the GI50 (NCI-H460) was > 100 µM (inactive), the GI50 (UO-31) was 33.1 µM (inactive) and the GI50 (LOX IMVI) was > 100 µM (inactive).
`O=C(O)c1cccc(/C=C/c2ccccc2)c1` was tested, and the GI50 (M14) was > 100 µM (inactive), the GI50 (NCI/ADR-RES) was > 100 µM (inactive) and the GI50 (SNB-75) was > 100 µM (inactive). For the same compound, the GI50 (RXF 393) was > 100 µM (inactive), the GI50 (A498) was > 100 µM (inactive) and the GI50 (HOP-62) was > 100 µM (inactive). The GI50 (SF-268) was > 100 µM (inactive), the GI50 (SN12C) was > 100 µM (inactive) and the GI50 (HOP-92) was > 100 µM (inactive). For the same compound, the GI50 (PC-3) was > 100 µM (inactive), the GI50 (OVCAR-8) was > 100 µM (inactive) and the GI50 (NCI-H522) was > 100 µM (inactive). The GI50 (RPMI-8226) was > 100 µM (inactive), the GI50 (NCI-H460) was > 100 µM (inactive) and the GI50 (UO-31) was > 100 µM (inactive). For the same compound, the GI50 (LOX IMVI) was > 100 µM (inactive).
In the case of `Cc1ccc(S(=O)(=O)Nn2c(-c3ccccc3)c(C#N)c(-c3ccc(Cl)cc3)c(C#N)c2=O)cc1`, the GI50 (M14) is reported as 18.4 µM (inactive), the GI50 (RXF 393) is reported as 25.2 µM (inactive) and the GI50 (A498) is reported as 21.8 µM (inactive). The GI50 (HOP-62) was 30.1 µM (inactive), the GI50 (SN12C) was 35.7 µM (inactive) and the GI50 (HOP-92) was 19.5 µM (inactive). For the same compound, the GI50 (HL-60) was 14.6 µM (inactive), the GI50 (K562) was 33.7 µM (inactive) and the GI50 (PC-3) was 26.2 µM (inactive). For the same compound, the GI50 (RPMI-8226) was 14 µM (inactive), the GI50 (NCI-H460) was 27.9 µM (inactive) and the GI50 (LOX IMVI) was 21.4 µM (inactive).
With `C/C(=N\N=C(\N)OB(F)F)c1ccccn1` the GI50 (M14) was > 100 µM (inactive), the GI50 (NCI/ADR-RES) was > 100 µM (inactive) and the GI50 (SNB-75) was 7.23 µM (inactive). The GI50 (SR) was 76.6 µM (inactive), the GI50 (RXF 393) was 9.33 µM (inactive) and the GI50 (A498) was > 100 µM (inactive). The GI50 (HOP-62) was 37.5 µM (inactive), the GI50 (SF-268) was > 100 µM (inactive) and the GI50 (SN12C) was > 100 µM (inactive). The GI50 (HOP-92) was 12.7 µM (inactive), the GI50 (HL-60) was 63.5 µM (inactive) and the GI50 (K562) was 46.7 µM (inactive). For the same compound, the GI50 (OVCAR-8) was 75 µM (inactive), the GI50 (NCI-H522) was > 100 µM (inactive) and the GI50 (NCI-H460) was 40.8 µM (inactive). For the same compound, the GI50 (UO-31) was 71.4 µM (inactive) and the GI50 (LOX IMVI) was 28.2 µM (inactive).
`S=C(N/N=C\C=N/NC(=S)N1CCCCC1)N1CCCCC1` was tested, and the GI50 (M14) was 0.208 µM (active), the GI50 (NCI/ADR-RES) was 0.267 µM (active) and the GI50 (SNB-75) was 0.731 µM (active). For the same compound, the GI50 (RXF 393) was 0.296 µM (active), the GI50 (A498) was 1.34 µM (inactive) and the GI50 (HOP-62) was 0.203 µM (active). For the same compound, the GI50 (SF-268) was 0.231 µM (active), the GI50 (SN12C) was 0.723 µM (active) and the GI50 (HOP-92) was 3.23 µM (inactive). The GI50 (K562) was 0.547 µM (active), the GI50 (PC-3) was 0.387 µM (active) and the GI50 (OVCAR-8) was 0.178 µM (active). For the same compound, the GI50 (NCI-H522) was 0.608 µM (active), the GI50 (RPMI-8226) was 0.433 µM (active) and the GI50 (NCI-H460) was < 0.0151 µM (active). For the same compound, the GI50 (UO-31) was 0.195 µM (active) and the GI50 (LOX IMVI) was 0.32 µM (active).
With `COc1cccc(/C=N/n2c(C)n[nH]c2=O)c1` the GI50 (M14) was > 100 µM (inactive), the GI50 (NCI/ADR-RES) was > 100 µM (inactive) and the GI50 (SNB-75) was 58.7 µM (inactive). For the same compound, the GI50 (RXF 393) was 18.8 µM (inactive), the GI50 (A498) was 25.5 µM (inactive) and the GI50 (HOP-62) was 80.7 µM (inactive). The GI50 (SF-268) was > 100 µM (inactive), the GI50 (SN12C) was > 100 µM (inactive) and the GI50 (K562) was > 100 µM (inactive). For the same compound, the GI50 (PC-3) was > 100 µM (inactive), the GI50 (OVCAR-8) was > 100 µM (inactive) and the GI50 (RPMI-8226) was > 100 µM (inactive). The GI50 (NCI-H460) was > 100 µM (inactive) and the GI50 (UO-31) was > 100 µM (inactive).
In the case of `CC1C2(C)OC(=N)C(C#N)(C(c3ccco3)O2)C1(C#N)C#N` (centres undefined), the GI50 (M14) is reported as 19.1 µM (inactive), the GI50 (NCI/ADR-RES) is reported as > 100 µM (inactive) and the GI50 (SNB-75) is reported as 97.3 µM (inactive). The GI50 (RXF 393) was 22.6 µM (inactive), the GI50 (A498) was > 100 µM (inactive) and the GI50 (SF-268) was 29 µM (inactive). For the same compound, the GI50 (SN12C) was 16.7 µM (inactive), the GI50 (HOP-92) was 22.3 µM (inactive) and the GI50 (HL-60) was 18.8 µM (inactive). The GI50 (K562) was 34.9 µM (inactive), the GI50 (PC-3) was 36.6 µM (inactive) and the GI50 (OVCAR-8) was 39.9 µM (inactive). For the same compound, the GI50 (NCI-H460) was 19.3 µM (inactive), the GI50 (UO-31) was 38.5 µM (inactive) and the GI50 (LOX IMVI) was 19.2 µM (inactive).
In the case of `CCOC(=O)c1[nH]cc(C)c1-c1cccn1-c1ccc(Cl)cc1[N+](=O)[O-]`, the GI50 (M14) is reported as 14.9 µM (inactive), the GI50 (NCI/ADR-RES) is reported as 17.5 µM (inactive) and the GI50 (SNB-75) is reported as 19.1 µM (inactive). The GI50 (RXF 393) was 13.7 µM (inactive), the GI50 (A498) was 35.3 µM (inactive) and the GI50 (HOP-62) was 18.6 µM (inactive). The GI50 (SF-268) was 21.1 µM (inactive), the GI50 (SN12C) was 24.7 µM (inactive) and the GI50 (HOP-92) was 17.9 µM (inactive). The GI50 (K562) was 22.6 µM (inactive), the GI50 (PC-3) was 20.1 µM (inactive) and the GI50 (OVCAR-8) was 20.8 µM (inactive). The GI50 (NCI-H522) was 14 µM (inactive), the GI50 (NCI-H460) was 18.8 µM (inactive) and the GI50 (UO-31) was 15.7 µM (inactive). For the same compound, the GI50 (LOX IMVI) was 17.5 µM (inactive).
